Patent US20140170096A1, “SUNSCREEN COMPOSITIONS” (priority 2011, published 2014)
Entries after “also recorded” stand apart in the source; their conditions may differ. Where two headings read alike, the source gives them in different places.

Assays:
[1] = system: viruses in water surrounding coral nubbins; assay: Viral abundance and viral enrichment in seawater surrounding coral nubbins (microcosm incubation); conditions: for Total viral abundances (TVN): seawater surrounding Acropora sp. nubbins, compound concentration per Table 2; for Viral enrichment factor (VEF): ratio of viral abundances, end vs start of incubation
Experimental: (§1) In situ tests were performed on nubbins (i.e., small branches of about 3-6 cm) of the stony coral Acropora sp. The nubbins were incubated in microcosms in presence of known concentrations of various ingredients potentially to be included in the composition of the eco-compatible sunscreen cream. In particular, coral nubbins (including more than 3000 polyps each) were collected by scuba divers from the same colony, located at a depth of about 3 m on the edge of the reef slope. Sampling of nubbins was performed by means of forceps. The nubbins were washed with seawater filtered onto 0.02-μm filters to eliminate viruses and prokaryotes. Each microcosm was prepared with a replicate set of nubbins (n=3) immersed in sterile polyethylene bags (Whirl-pack, Nasco, Fort Atkinson, Wis., USA) filled with 2 L filtered seawater. A total of 27 microcosms were prepared, in order to test 20 ingredients with the respective positive and negative controls. The microcosms were incubated at in situ temperature and light conditions for 72 hours.
(§2) After subsampling, sea water was transferred into sterile test tubes without use of fixatives and stored at −20° C. until laboratory analysis for quantification of viral and prokaryotic abundance. Once in laboratory, the water samples were immediately processed. Briefly, 200 uL sea water were diluted 1:10 with prefiltered MilliQ water, through 0.02-μm pore filters (Anodisc filter; 25-mm diameter, Al2O3; Whatman) and stained with 20 μL SYBR Green (stock solution diluted 1:20; Invitrogen, Carlsbad, Calif., USA). […] Slides were stored at −20° C. until microscopy analysis. Virus and prokaryote counts were obtained by epifluorescence microscopy (magnification, ×1000; Zeiss Axioplan) by examining at least 10 optical fields, that is, at least 200 cells or viruses per replicate. Viral (and prokaryotic) enrichment was calculated as ratio between virus (and prokaryote) abundances and virus (and prokaryote) abundance at the […] of the experiment.

[2] = system: prokaryotes in water surrounding coral nubbins; assay: Prokaryotic (bacterial) abundance and enrichment in seawater surrounding coral nubbins (microcosm incubation); conditions: seawater surrounding Acropora sp. nubbins
Experimental: as §1, §2

[3] = system: symbiotic zooxanthellae released from coral nubbins; assay: Zooxanthellae counts: zooxanthellae released in water surrounding coral nubbins; assay type: in vivo, Acropora sp.; conditions: for Healthy zooxanthellae released / Pale zooxanthellae released / Total zooxanthellae released / Transparent (i.e., dead) zooxanthellae released: end of incubation (72 h); for Percentage of healthy zooxanthellae released / Percentage of pale zooxanthellae released / Percentage of transparent zooxanthellae released: of total released; for Abundance of released zooxanthellae compared with the BLK system: statistical analysis, P<0.01
Experimental: as §1
Subsamples (50 mL) of seawater surrounding coral nubbins were collected at the start of the experiment (T0) and after 6, 12, 24, 36, 48 and 72 hours of incubation. The subsamples were fixed in 3% glutaraldehyde and then about 6.0 ml of each replicate was filtered through 2.0-μm polycarbonate filters. Filters were mounted on glass slides and zooxanthellae counted under epifluorescence microscopy (Zeiss Axioplan, Carl Zeiss Inc., Jena, Germany; ×400 and ×1000) using standard and UV light.

[4] = system: stony coral Acropora sp. nubbins; assay: Quantification of coral bleaching by colorimetric (CMYK) analysis of digital photographs; assay type: in vivo; conditions: for Number of color channels (of 4, CMYK) significantly altered: after 72 h of incubation; for One-way ANOVA probability level, color component Black (K) / One-way ANOVA probability level, color component Cyan (C) / One-way ANOVA probability level, color component Magenta (M) / One-way ANOVA probability level, color component Yellow (Y): coral color change, start vs after treatment
Experimental: as §1
Photographs were taken under identical illumination with a Canon PowerShot A620 digital camera (Canon Inc., Tokyo, Japan) with a scale meter on the background. The photos were successively analyzed with a photo-editing software (Adobe Photoshop CS2) for color composition [cyan, magenta, yellow, black (CMYK)]. Levels of bleaching were measured as the difference between the corals' color at the beginning of the experiment and after treatments. Variations in the percentage of the different color components (CMYK) were analyzed with one-way analysis of variance (ANOVA). To rank the bleaching effect due to the compounds tested, a Bray-Curtis similarity matrix was prepared and a multidimensional scaling analysis of the shifts in CMYK color composition of treated corals was performed using Primer 5.0 software (Primer-E Ltd., Plymouth, UK). Bleaching rates were measured as the dissimilarity percentage in CMYK color composition between treated and control corals using the SIMPER tool of Primer 5.0 software (Primer-E Ltd).

coral reefs = assay: Summary of eco-compatibility of tested products with coral reefs; parameters: species or system Acropora sp.
Experimental: In order to select the most eco-compatible products for each group of compounds (i.e., base cream, fragrance, antioxidants and filters) the following criteria were selected:
1. coral bleaching level; 2. degree of release of symbiotic zooxanthellae; 3. zooxanthellae health conditions; 4. viral enrichment in the incubation medium with respect to controls.

Row | Abundance of released zooxanthellae compared with the BLK system [3] | Compound | Total viral abundances (TVN) ([1]; incubation 0 (start)) [viruses ml^−1] | Total viral abundances (TVN) ([1]; incubation 12 h) [viruses ml^−1] | Bacterial abundance (total bacterial number, TBN) ([2]; incubation 0 (start)) | Bacterial abundance (total bacterial number, TBN) ([2]; incubation 12 h) | Healthy zooxanthellae released [3] [cells ml^−1] | Pale zooxanthellae released [3] [cells ml^−1] | Total zooxanthellae released [3] [cells ml^−1] | Transparent (i.e., dead) zooxanthellae released [3] [cells ml^−1] | Percentage of healthy zooxanthellae released ([3]; end of incubation) [%] | Percentage of pale zooxanthellae released ([3]; end of incubation) [%] | Percentage of transparent zooxanthellae released ([3]; end of incubation) [%] | Viral enrichment factor (VEF) [1] | also measured
1 | – | CO[C@@]12[C@H](COC(N)=O)C3=C(C(=O)C(C)=C(N)C3=O)N1C[C@@H]1N[C@@H]12 [MITO, Mitomycin C, reference compound] | 1.11E+05 | 1.53E+06 | 1.11E+05 | 1.53E+06 | 0.00E+00 | 5.25E+03 | 2.20E+04 | 1.68E+04 | 0 | 24 | 76 | – | Number of color channels (of 4, CMYK) significantly altered [4]: 4; One-way ANOVA probability level, color component Black (K) [4]: ** (** = P < 0.01); One-way ANOVA probability level, color component Cyan (C) [4]: ** (** = P < 0.01); One-way ANOVA probability level, color component Magenta (M) [4]: ** (** = P < 0.01); One-way ANOVA probability level, color component Yellow (Y) [4]: ** (** = P < 0.01)
2 | significantly higher | CC(=O)Oc1c(C)c(C)c2c(c1C)CCC(C)(CCC[C@H](C)CCC[C@H](C)CCCC(C)C)O2 (mixture of isomers) [System D17, DL-tocopherol-acetate] | 3.49E+05 | 2.83E+06 | 5.80E+04 | 1.42E+06 | 1.48E+03 | 1.88E+04 | 4.45E+04 | 2.42E+04 | 3 | 42 | 54 | 8.36 | Eco-compatibility (coral reefs; criteria: bleaching level, zooxanthellae release, zooxanthellae health, viral enrichment, listed as Tocopheryl acetate): Highly compatible; Eco-compatibility (coral reefs; criteria: bleaching level, zooxanthellae release, zooxanthellae health, viral enrichment, listed as tocopheryl acetate): greater eco-compatibility
3 | significantly higher | Cc1c(C)c2c(c(C)c1O)CC[C@@](C)(CCC[C@H](C)CCC[C@H](C)CCCC(C)C)O2 [System D16, Alpha-tocopherol] | 3.24E+05 | 1.46E+06 | 3.78E+04 | – | 4.09E+03 | 1.25E+04 | 2.67E+04 | 1.01E+04 | 15 | 47 | 38 | 4.54 | Eco-compatibility (coral reefs; criteria: bleaching level, zooxanthellae release, zooxanthellae health, viral enrichment, listed as Tocopherol): Highly compatible; Eco-compatibility (coral reefs; criteria: bleaching level, zooxanthellae release, zooxanthellae health, viral enrichment, listed as tocopherol): greater eco-compatibility
4 | – | CCCCC(CC)COC(=O)c1ccc(Nc2nc(Nc3ccc(C(=O)OCC(CC)CCCC)cc3)nc(Nc3ccc(C(=O)OCC(CC)CCCC)cc3)n2)cc1 (stereo not drawn) [System D24, ethylhexyl triazone] | 9.58E+04 | 1.08E+06 | 2.09E+04 | 7.41E+05 | 2.68E+02 | 8.39E+03 | 1.89E+04 | 1.02E+04 | 1 | 44 | 54 | 12.58 | Eco-compatibility (coral reefs): Compatible
5 | – | CC(C)(C)CC(C)(C)c1cc(Cc2cc(C(C)(C)CC(C)(C)C)cc(-n3nc4ccccc4n3)c2O)c(O)c(-n2nc3ccccc3n2)c1 [System D22] | 5.06E+05 | 2.99E+06 | 5.47E+04 | 9.18E+05 | 4.70E+02 | 6.91E+03 | 1.80E+04 | 1.06E+04 | 3 | 38 | 59 | 6.16 | Decrease of VPR ([1]; after incubations): up to 10 times; Eco-compatibility (coral reefs; criteria: bleaching level, zooxanthellae release, zooxanthellae health, viral enrichment, listed as MBBT): greater eco-compatibility; also recorded: Highly compatible
6 | – | C/C=C/C=C/C(=O)O [sorbic acid] | – | – | – | – | – | – | – | – | – | – | – | – | Harm to the marine environment of coral reefs (coral reefs): did not prove harmful
7 | – | CCCCCCOC(=O)c1ccccc1C(=O)c1ccc(N(CC)CC)cc1O [System D25, 2-[4-(diethylamine)-2-hydroxybenzoyl]hexyl benzoate] | 3.67E+05 | 2.63E+06 | 3.67E+05 | 2.63E+06 | 3.35E+02 | 8.86E+03 | 1.64E+04 | 7.25E+03 | 2 | 54 | 44 | 7.44 | Eco-compatibility (coral reefs; criteria: bleaching level, zooxanthellae release, zooxanthellae health, viral enrichment, listed as DHHB): greater eco-compatibility; also recorded: Highly compatible

Row | Compound | Abundance of released zooxanthellae compared with the BLK system [3] | Total viral abundances (TVN) ([1]; incubation 0 (start)) [viruses ml^−1] | Total viral abundances (TVN) ([1]; incubation 12 h) [viruses ml^−1] | Bacterial abundance (total bacterial number, TBN) ([2]; incubation 0 (start)) | Bacterial abundance (total bacterial number, TBN) ([2]; incubation 12 h) | Healthy zooxanthellae released [3] [cells ml^−1] | Pale zooxanthellae released [3] [cells ml^−1] | Total zooxanthellae released [3] [cells ml^−1] | Transparent (i.e., dead) zooxanthellae released [3] [cells ml^−1] | Percentage of healthy zooxanthellae released ([3]; end of incubation) [%] | Percentage of pale zooxanthellae released ([3]; end of incubation) [%] | Percentage of transparent zooxanthellae released ([3]; end of incubation) [%] | Viral enrichment factor (VEF) [1] | also measured
8 | 2-phospho-ascorbic acid trisodium salt [System D18] | significantly higher | 3.70E+05 | 2.51E+06 | 3.86E+04 | 1.39E+06 | 1.14E+03 | 1.09E+04 | 2.11E+04 | 9.06E+03 | 5 | 52 | 43 | 7.09 | Final abundance of zooxanthellae in water surrounding the coral nubbins ([3]; end of incubation): 4.45 ×10^4 cell ml^−1; Number of color channels (of 4, CMYK) significantly altered [4]: 4; One-way ANOVA probability level, color component Black (K) [4]: ** (** = P < 0.01); One-way ANOVA probability level, color component Cyan (C) [4]: ** (** = P < 0.01); One-way ANOVA probability level, color component Magenta (M) [4]: ** (** = P < 0.01); One-way ANOVA probability level, color component Yellow (Y) [4]: * (* = P < 0.05)
